# Measured values published in ChEMBL document CHEMBL1201862, “PubChem BioAssay data set” (2004).
#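 Growth conditions: 96-well plates. Treatment: test compound, 48 hours, 5 concentrations. Analysis: linear interpolation between bracketing concentrations; unreached endpoints set to highest concentration. GI50 = concentration required for 50% inhibition of growth.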 The source made the active and inactive calls. Cut-off read from the data, not from the text of the source: active = GI50 up to about 1.1 µM and inactive = higher.
# What was measured:
# Experiment in all cases: NCI-60 cell line screen, 48 h
# NCI-H460 = system: NCI-H460
# SR = system: SR
# SK-MEL-28 = system: SK-MEL-28
# UACC-62 = system: UACC-62
# SK-MEL-5 = system: SK-MEL-5
# OVCAR-3 = system: OVCAR-3
# MDA-MB-435 = system: MDA-MB-435
# IGROV-1 = system: IGROV-1
# PC-3 = system: PC-3
# SF-295 = system: SF-295
# MDA-N = system: MDA-N
# UACC-257 = system: UACC-257
# SW-620 = system: SW-620
# NCI/ADR-RES = system: NCI/ADR-RES
# RPMI-8226 = system: RPMI-8226
# HCT-116 = system: HCT-116
# 786-0 = system: 786-0
# MDA-MB-231 = system: MDA-MB-231
# A549 = system: A549
# SK-MEL-2 = system: SK-MEL-2
# COLO 205 = system: COLO 205
# NCI-H23 = system: NCI-H23
# SK-OV-3 = system: SK-OV-3
# HL-60 = system: HL-60
# LOX IMVI = system: LOX IMVI
# MCF7 = system: MCF7
# OVCAR-8 = system: OVCAR-8
# NCI-H226 = system: NCI-H226
# SNB-19 = system: SNB-19
# HCT-15 = system: HCT-15
# HOP-62 = system: HOP-62
# K562 = system: K562
# CCRF-CEM = system: CCRF-CEM
# HT-29 = system: HT-29
# CAKI-1 = system: CAKI-1
# SF-539 = system: SF-539
# Hs-578T = system: Hs-578T
# OVCAR-5 = system: OVCAR-5
# T47D = system: T47D
# SF-268 = system: SF-268
# M14 = system: M14
# SN12C = system: SN12C
# UO-31 = system: UO-31
# DU-145 = system: DU-145
# SNB-75 = system: SNB-75
# ACHN = system: ACHN
# KM12 = system: KM12
# U-251 = system: U-251
# A498 = system: A498
# EKVX = system: EKVX
# TK-10 = system: TK-10
# HOP-92 = system: HOP-92
# BT-549 = system: BT-549
# MOLT-4 = system: MOLT-4
# HCC 2998 = system: HCC 2998
# NCI-H522 = system: NCI-H522
# Malme-3M = system: Malme-3M
# OVCAR-4 = system: OVCAR-4
# RXF 393 = system: RXF 393
structure (smiles),measurement,setting,value
Cc1c(C)c(C)c(-n2[nH]c(=O)n(C)c2=O)c(C)c1C,GI50,NCI-H460,> 100 µM (inactive)
same,GI50,SR,> 100 µM (inactive)
same,GI50,SK-MEL-28,> 100 µM (inactive)
same,GI50,UACC-62,> 100 µM (inactive)
same,GI50,SK-MEL-5,> 100 µM (inactive)
same,GI50,OVCAR-3,> 100 µM (inactive)
same,GI50,MDA-MB-435,> 100 µM (inactive)
same,GI50,IGROV-1,> 100 µM (inactive)
same,GI50,PC-3,> 100 µM (inactive)
same,GI50,SF-295,> 100 µM (inactive)
same,GI50,MDA-N,> 100 µM (inactive)
same,GI50,UACC-257,> 100 µM (inactive)
same,GI50,SW-620,> 100 µM (inactive)
same,GI50,NCI/ADR-RES,> 100 µM (inactive)
same,GI50,RPMI-8226,> 100 µM (inactive)
same,GI50,HCT-116,> 100 µM (inactive)
same,GI50,786-0,> 100 µM (inactive)
same,GI50,MDA-MB-231,> 100 µM (inactive)
same,GI50,A549,> 100 µM (inactive)
same,GI50,SK-MEL-2,> 100 µM (inactive)
same,GI50,COLO 205,> 100 µM (inactive)
same,GI50,NCI-H23,> 100 µM (inactive)
same,GI50,SK-OV-3,> 100 µM (inactive)
same,GI50,HL-60,> 100 µM (inactive)
same,GI50,LOX IMVI,> 100 µM (inactive)
same,GI50,MCF7,> 100 µM (inactive)
same,GI50,OVCAR-8,> 100 µM (inactive)
same,GI50,NCI-H226,> 100 µM (inactive)
same,GI50,SNB-19,> 100 µM (inactive)
same,GI50,HCT-15,> 100 µM
same,GI50,HOP-62,> 100 µM (inactive)
same,GI50,K562,> 100 µM (inactive)
same,GI50,CCRF-CEM,> 100 µM (inactive)
same,GI50,HT-29,> 100 µM (inactive)
same,GI50,CAKI-1,> 100 µM (inactive)
same,GI50,SF-539,> 100 µM (inactive)
same,GI50,Hs-578T,> 100 µM (inactive)
same,GI50,OVCAR-5,> 100 µM (inactive)
same,GI50,T47D,> 100 µM (inactive)
same,GI50,SF-268,> 100 µM (inactive)
same,GI50,M14,> 100 µM (inactive)
same,GI50,SN12C,> 100 µM (inactive)
same,GI50,UO-31,52.5 µM (inactive)
same,GI50,DU-145,> 100 µM (inactive)
same,GI50,SNB-75,> 100 µM (inactive)
same,GI50,ACHN,> 100 µM (inactive)
same,GI50,KM12,> 100 µM (inactive)
same,GI50,U-251,> 100 µM (inactive)
same,GI50,A498,> 100 µM (inactive)
same,GI50,EKVX,> 100 µM (inactive)
same,GI50,TK-10,> 100 µM (inactive)
same,GI50,HOP-92,> 100 µM (inactive)
same,GI50,BT-549,> 100 µM (inactive)
same,GI50,MOLT-4,> 100 µM (inactive)
CCOC(=O)C1=C(C#N)S(=O)(=O)c2c(oc(C)c2C)N1,GI50,NCI-H460,> 100 µM (inactive)
same,GI50,SR,> 100 µM (inactive)
same,GI50,SK-MEL-28,> 100 µM (inactive)
same,GI50,UACC-62,> 100 µM (inactive)
same,GI50,SK-MEL-5,> 100 µM (inactive)
same,GI50,OVCAR-3,> 100 µM (inactive)
same,GI50,MDA-MB-435,> 100 µM (inactive)
same,GI50,IGROV-1,> 100 µM (inactive)
same,GI50,PC-3,> 100 µM (inactive)
same,GI50,SF-295,> 100 µM (inactive)
same,GI50,MDA-N,> 100 µM (inactive)
same,GI50,UACC-257,> 100 µM (inactive)
same,GI50,SW-620,> 100 µM (inactive)
same,GI50,NCI/ADR-RES,> 100 µM (inactive)
same,GI50,HCC 2998,> 100 µM (inactive)
same,GI50,RPMI-8226,> 100 µM (inactive)
same,GI50,HCT-116,> 100 µM (inactive)
same,GI50,786-0,> 100 µM (inactive)
same,GI50,MDA-MB-231,> 100 µM (inactive)
same,GI50,A549,> 100 µM (inactive)
same,GI50,SK-MEL-2,> 100 µM (inactive)
same,GI50,COLO 205,> 100 µM (inactive)
same,GI50,NCI-H23,> 100 µM (inactive)
same,GI50,SK-OV-3,> 100 µM (inactive)
same,GI50,LOX IMVI,> 100 µM (inactive)
same,GI50,MCF7,> 100 µM (inactive)
same,GI50,OVCAR-8,> 100 µM (inactive)
same,GI50,NCI-H226,> 100 µM (inactive)
same,GI50,SNB-19,> 100 µM (inactive)
same,GI50,HCT-15,> 100 µM
same,GI50,HOP-62,> 100 µM (inactive)
same,GI50,K562,> 100 µM (inactive)
same,GI50,HT-29,> 100 µM (inactive)
same,GI50,CAKI-1,> 100 µM (inactive)
same,GI50,SF-539,> 100 µM (inactive)
same,GI50,Hs-578T,> 100 µM (inactive)
same,GI50,OVCAR-5,> 100 µM (inactive)
same,GI50,T47D,> 100 µM (inactive)
same,GI50,SF-268,> 100 µM (inactive)
same,GI50,M14,> 100 µM (inactive)
same,GI50,SN12C,> 100 µM (inactive)
same,GI50,UO-31,> 100 µM (inactive)
same,GI50,DU-145,> 100 µM (inactive)
same,GI50,SNB-75,> 100 µM (inactive)
same,GI50,ACHN,> 100 µM (inactive)
same,GI50,KM12,> 100 µM (inactive)
same,GI50,NCI-H522,> 100 µM (inactive)
same,GI50,Malme-3M,> 100 µM (inactive)
same,GI50,U-251,> 100 µM (inactive)
same,GI50,A498,> 100 µM (inactive)
same,GI50,EKVX,> 100 µM (inactive)
same,GI50,TK-10,> 100 µM (inactive)
same,GI50,HOP-92,> 100 µM (inactive)
same,GI50,BT-549,> 100 µM (inactive)
same,GI50,OVCAR-4,> 100 µM (inactive)
same,GI50,MOLT-4,> 100 µM (inactive)
CN1C(c2ccccc2)=CC(=O)C(O)=C(c2ccccc2)S1(=O)=O,GI50,NCI-H460,> 100 µM (inactive)
same,GI50,SR,> 100 µM (inactive)
same,GI50,SK-MEL-28,> 100 µM (inactive)
same,GI50,UACC-62,> 100 µM (inactive)
same,GI50,SK-MEL-5,> 100 µM (inactive)
same,GI50,OVCAR-3,> 100 µM (inactive)
same,GI50,MDA-MB-435,> 100 µM (inactive)
same,GI50,IGROV-1,> 100 µM (inactive)
same,GI50,PC-3,> 100 µM (inactive)
same,GI50,SF-295,> 100 µM (inactive)
same,GI50,MDA-N,> 100 µM (inactive)
same,GI50,UACC-257,> 100 µM (inactive)
same,GI50,SW-620,> 100 µM (inactive)
same,GI50,NCI/ADR-RES,> 100 µM (inactive)
same,GI50,HCC 2998,> 100 µM (inactive)
same,GI50,RPMI-8226,> 100 µM (inactive)
same,GI50,HCT-116,> 100 µM (inactive)
same,GI50,786-0,> 100 µM (inactive)
same,GI50,MDA-MB-231,> 100 µM (inactive)
same,GI50,A549,> 100 µM (inactive)
same,GI50,SK-MEL-2,> 100 µM (inactive)
same,GI50,COLO 205,> 100 µM (inactive)
same,GI50,NCI-H23,> 100 µM (inactive)
same,GI50,SK-OV-3,> 100 µM (inactive)
same,GI50,HL-60,> 100 µM (inactive)
same,GI50,LOX IMVI,> 100 µM (inactive)
same,GI50,MCF7,> 100 µM (inactive)
same,GI50,OVCAR-8,> 100 µM (inactive)
same,GI50,RXF 393,> 100 µM (inactive)
same,GI50,NCI-H226,> 100 µM (inactive)
same,GI50,SNB-19,> 100 µM (inactive)
same,GI50,HCT-15,> 100 µM
same,GI50,HOP-62,> 100 µM (inactive)
same,GI50,K562,> 100 µM (inactive)
same,GI50,CCRF-CEM,> 100 µM (inactive)
same,GI50,HT-29,> 100 µM (inactive)
same,GI50,CAKI-1,> 100 µM (inactive)
same,GI50,SF-539,> 100 µM (inactive)
same,GI50,Hs-578T,> 100 µM (inactive)
same,GI50,OVCAR-5,> 100 µM (inactive)
same,GI50,T47D,> 100 µM (inactive)
same,GI50,SF-268,> 100 µM (inactive)
same,GI50,M14,> 100 µM (inactive)
same,GI50,SN12C,> 100 µM (inactive)
same,GI50,UO-31,> 100 µM (inactive)
same,GI50,DU-145,> 100 µM (inactive)
same,GI50,SNB-75,> 100 µM (inactive)
same,GI50,ACHN,> 100 µM (inactive)
same,GI50,KM12,> 100 µM (inactive)
same,GI50,NCI-H522,> 100 µM (inactive)
same,GI50,Malme-3M,> 100 µM (inactive)
same,GI50,U-251,> 100 µM (inactive)
same,GI50,EKVX,> 100 µM (inactive)
same,GI50,TK-10,> 100 µM (inactive)
same,GI50,HOP-92,> 100 µM (inactive)
same,GI50,BT-549,> 100 µM (inactive)
same,GI50,OVCAR-4,> 100 µM (inactive)
same,GI50,MOLT-4,> 100 µM (inactive)
